What was measured:
[1] = tested on: S. aureus (ATCC 25904) biofilm; test: Biofilm formation on polystyrene (crystal violet); format: cell-based, Staphylococcus aureus; details: 20 hours
Experimental: (§1) S. aureus (ATCC 25904) was grown overnight in TSB medium, before being diluted 100 fold in fresh TSB, and incubated aerobically at 37° C. until bacteria culture reached an OD600 of 0.6 (corresponding to approximately 1-3×10^8 CFU/ml). Bacteria cultures were then diluted to 1×10^4 CFU/ml in fresh TSB. 800 μl aliquots of diluted bacteria suspensions were distributed in each well of a 24-well plate. Bacteria were allowed to adhere for 4 hours under static conditions at 37° C. After removing media, wells were rinsed 2 times with PBS to eliminate planktonic bacteria and re-filled with TSB supplemented with 0.5% glucose
Triafluocyl or DMSO as vehicle was then added at desired concentration and plates were incubated at 37° C. for 20 hours. After incubation, wells were washed and stained with 0.5% (w/v) crystal violet for 30 minutes, washed again and the dye was solubilized by adding 20% acetic acid (v/v in water) before reading absorbance at 595 nm.
S. aureus biofilms were formed on polystyrene surface in the presence of increasing concentrations of Triafluocyl or DMSO as vehicle. In FIG. 2, Biofilm mass is presented as percentage of values obtained in the presence of DMSO (*P<0.05; **P<0.01; ***P<0.001, Triafluocyl versus DMSO, n=4).
as §1, with “Staphyloccocus” for “S.”, “or Staphyloccocus epidermidis (ATCC 35984) were” for “was”, “TSB. Aliquots of” for “TSB.”, “μl” for “μl aliquots of”, “removing the” for “removing”, “glucose containing Fluometacyl at desired concentration or DMSO alone (Ctrl). […] The dye was solubilized by adding 20% acetic acid (v/v in water) before reading absorbance at 595 nm. […]” for “glucose”

[2] = tested on: E. faecalis vancomycin-resistant (VRE) ATCC BAA-2365; test: MIC determination (EUCAST, Mueller-Hinton broth); format: cell-based; details: Enterococcus faecalis
Experimental: Further experiments were conducted using different strains of E. faecalis, as clinically relevant Gram-positive bacterial strains: E. faecalis vancomycin-resistant (VRE) ATCC BAA-2365, and E. faecalis ATCC 29212 in order to determine the Minimal Inhibitory Concentration (MIC) which is the minimal concentration required to prevent bacterial growth; the Minimal Bactericidal Concentration (MBC) which determines the lowest concentration at which an antimicrobial agent kill a particular microorganism and a Minimum Duration for killing 99.9% bacteria (MDK99.9) which is a tolerance metric according to the EUCAST.
MIC determination: A single colony selected from the different strains of E. faecalis is resuspended and cultured in the appropriate medium overnight (O/N) in aerobic conditions (37° C. with 220 rpm shaking), next day a 1:100 inoculum in Mueller-Hinton broth (MHB) was incubated in aerobic conditions for 3 hr (OD=0.08-0.1) and an inoculum of 1:300 dilution, corresponding to 3×10^5 CFU/ml, was incubated in presence or absence of different concentrations of Triafluocyl in 1% DMSO. […]
The Minimal Inhibitory Concentration (MIC) and the Minimal Bactericidal Concentration (MBC) of Fluometacyl were determined on several gram-positive strains (Table 2) following EUCAST (European Committee on Antimicrobial susceptibility Testing) recommendations. […]

CCCSc1nc(N[C@@H]2C[C@H]2c2ccc(F)c(F)c2)c2nnn([C@@H]3C[C@H](OCCO)[C@@H](O)[C@H]3O)c2n1 [Triafluocyl, (1S,2S,3R,5S)-3-[7-[(1R,2S)-2-(3,4-difluorophenyl)cyclopropylamino]-5-(propylthio)-3H-[1,2,3]-triazolo[4,5-d]pyrimidin-3-yl]-5-(2-hydroxyethoxy)-1,2-cyclopentanediol]
S. aureus biofilm formation ([1]; 10 μg/ml, polystyrene surface): no biofilm could form
S. aureus biofilm formation ([1]; all concentrations tested, versus DMSO): significantly reduces
MIC [2]: 20 µg/mL

CCCSc1nc(N[C@@H]2C[C@H]2c2ccc(F)c(F)c2)c2nnn([C@@H]3C[C@H](O)[C@@H](O)[C@H]3O)c2n1 [Fluometacyl, (1S,2R,3S,4R)-4-[7-[[(1R,2S)-2-(3,4-Difluorophenyl)cyclopropyl]amino]-5-(propylthio)-3H-1,2,3-triazolo[4,5-d]pyrimidin-3-yl]-1,2,3-cyclopentanetriol]
S. aureus biofilm formation ([1]; 38 μM, FIG. 10A): could not form any biofilm
MIC [2]: 38 µM

Reference: patent US10905691B2, “Use of triazolo(4,5-d)pyrimidine derivatives for prevention and treatment of bacterial infection” (Universite de Liege, priority 2016, dated 2021)
